Common to all, as to type: functional, cell-based
For assay [1], the system named is HL-60. The experiment in a line: Antiproliferative activity against HL60 cells by MTT assay. Conditions: Homo sapiens.
The subject of assay [2] is U-937. The experiment in a line: Antiproliferative activity against human U937 cells by MTT assay. (Tetrazolium dyes change colour on reduction, which living cells bring about.)
In assay [3] the test system is SK-MEL-1. The experiment in a line: Antiproliferative activity against human SK-MEL1 cells by MTT assay.
Assay [4] relates to HL-60. The experiment in a line: Induction of apoptosis in HL60 cells assessed as morphological changes at 3 uM after 4 hrs by phase contrast microscopy. The note with it: Homo sapiens.
Assay [5] relates to HL-60. The experiment in a line: Induction of apoptosis in HL60 cells assessed as chromatin condensation at 3 uM after 4 hrs by fluorescence microscopy. The note with it: Homo sapiens.
For assay [6], the system named is HL-60. The experiment in a line: Induction of apoptosis in HL60 cells assessed as DNA fragmentation at 3 uM after 4 hrs by gel electrophoresis. Conditions: Homo sapiens.
Assay [7] relates to U-937. The experiment in a line: Induction of apoptosis in U937 cells assessed as DNA fragmentation at 3 uM after 4 hrs by gel electrophoresis. The note with it: Homo sapiens.
The subject of assay [8] is HL-60. The experiment in a line: Induction of apoptosis in HL60 cells assessed as cytochrome C release at 3 uM by Western blot. The note with it: Homo sapiens.
The test system of assay [9] is HL-60. The experiment in a line: Induction of apoptosis in HL60 cells assessed as caspase 3 cleavage at 3 uM by Western blot. Conditions: Homo sapiens. On the technique in general: A western blot detects proteins with antibodies after separation by electrophoresis.
Assay [10] has as its system U-937. The experiment in a line: Induction of apoptosis in U937 cells assessed as caspase 3 cleavage at 3 uM by Western blot. The note with it: Homo sapiens.
Assay [11] relates to HL-60. The experiment in a line: Induction of apoptosis in HL60 cells assessed as PARP cleavage at 3 uM by Western blot. Conditions: Homo sapiens.

SMILES strings stand for the structures. Activity calls are given as the source filed them. The calls are words filed in the database; no cut-off is given here.

Broadly, the IC50 is the concentration at which inhibition is half-maximal. A lower IC50 goes with higher potency. Turning to `C=C(Br)C(=O)Nc1ccc2sc(C(=O)NCCCCCCNc3nsc4nc5ccccc5n34)cc2c1`, the IC50 in assay [1] was 1240 nM; in [2], 910 nM; in assay [3], 8040 nM. The outcome in assay [4], in assay [5], in assay [6], in assay [7], in [8] and in assay [9] was Active. The result in assay [10] and in assay [11] was Active.

Turning to `C=C(Br)C(=O)Nc1ccc2c(c1)cc(C(=O)NCCCCCCNc1nsc3nc4ccccc4n13)n2C`, the IC50 is 840 nM in assay [1], 890 nM in assay [2] and 4500 nM in assay [3]. Further, the outcome in assay [4], in [5], in [6], in assay [7], in assay [8] and in assay [9] was Active. Besides, the outcome in [10] and in assay [11] was Active.

On to `C=C(Br)C(=O)Nc1ccc2[nH]c(C(=O)NCCCCCCNc3nsc4nc5ccccc5n34)cc2c1`, for which the values for the IC50 in [1], in assay [2] and in [3] were 550 nM, 400 nM and 3020 nM, respectively. Also, the result in [4], in assay [5], in assay [6], in [7], in [8] and in assay [9] was Active. For the same compound, the result in assay [10] and in [11] was Active.

As for `C=C(Br)C(=O)Nc1ccc2oc(C(=O)NCCCCCCNc3nsc4nc5ccccc5n34)cc2c1`, the values for the half-inhibitory concentration (IC50) in [1], in assay [2] and in [3] were 1720 nM, 740 nM and 8950 nM, respectively. Further, the result in assay [4], in assay [5], in assay [6], in assay [7], in [8] and in [9] was Active. Further, the result in assay [10] and in assay [11] was Active.

Take `C=C(Br)C(=O)Nc1ccc2[nH]c(C(=O)NCCCNc3nsc4nc5ccccc5n34)cc2c1`: the IC50 in [1] came out at 290 nM; in [2] it was 240 nM; in assay [3], 2090 nM. The outcome in [4], in assay [5], in assay [6], in assay [7], in assay [8] and in [9] was Active. In addition, the outcome in [10] and in assay [11] was Active.

The values above are taken from ChEMBL document CHEMBL1139187, “Hybrid molecules containing benzo[4,5]imidazo[1,2-d][1,2,4]thiadiazole and alpha-bromoacryloyl moieties as potent apoptosis inducers on human myeloid leukaemia cells” (Bioorg Med Chem Lett, 2007).
